Patent US10918624B2, “Anti-cancer azole compounds” (Imam Abdulrahman Bin Faisal University, priority 2019, dated 2021)
Entries after “also recorded” stand apart in the source; their conditions may differ.

Legend:
HCT-116 cells [1] = test: Cancer cells viability by MTT assay; conditions: for cancer cell viability (% of control) / effect on cancer cells survivability (in words): 48 hrs; for cancer cell viability (% of control) / effect on cancer cells survivability (in words) / attenuating cancer cells proliferation (in words): HCT-116; for effect on cancer cells survivability (in words): 100, 500 and 750 ug/mL; for dose dependence of effect on cancer cell survivability: HCT-116, FIG. 11
Description: HCT-116 cells were grown as previously described method by Khan et al. [“Fluorescent magnetic submicronic polymer (FMSP) nanoparticles induce cell death in human colorectal carcinoma cells” Artif Cells Nanomed Biotechnol. (2018 Jul. 25) 1-7, doi: 10.1080/21691401.2018.1491476]. In brief, HCT-116 cells were grown in the DMEM, 10% fetal bovine serum, L-glutamine, selenium chloride, penicillin, and streptomycin. The cells were culture in incubator (Heracell 150i, Thermo-scientific, USA) containing 5% CO2 at 37°. Finally, confluence cells were seeded into 96-well cell plates and once the cells become 80% confluence, the cancer cells were treated with different concentrations (100 μg/mL, 500 μg/mL and 750 μg/mL) of BG-(Tri)2, BG-(ATri)2, BG-(Atet)2, BG-(Imi)2, BG-(H3PO4)2, respectively. Thereafter, the treated cancer cells were microscopically monitored after 24 hrs and 48 hrs intervals. Three samples were examined from each experiment.
The effects of BG-(Tri)2, BG-(ATri)2, BG-(Atet)2, BG-(Imi)2, BG-(H3PO4)2 on cancer cells were determined by MTT assay. The cancer cells were seeded with 6×10^4 cells/mL in 96-well culture plates containing DMEM, 10% Fetal bovine serum, penicillin, and streptomycin and were incubated in CO2 incubator till they become 80% confluence. Then, cancer cells were treated with BG-(Tri)2, BG-(ATri)2, BG-(Atet)2, BG-(Imi)2, BG-(H3PO4)2 at concentrations of 100 μg/mL, 500 μg/mL and 750 μg/mL, respectively. […] MTT (5.0 mg/mL) solution was added in each well and cells were again incubated for 4 hrs in the CO2 incubator and finally media was changed with the addition of DMSO. The color intensity of each sample was measured using an ELISA plate reader (Biotek Instruments, USA) at wavelength 570 nm.
The following formula was used to calculate percentage of cell viability: % of Cell viability=Optical density (O.D) of BG-(Tri)2,BG-(ATri)2,BG-(Atet)2,BG-(Imi)2,BG-(H3PO4)2 cells/Optical density (O.D) of control cells×100 Statistical Analysis:
The mean±standard deviation (SD) from control and BG-(Tri)2, BG-(ATri)2, BG-(Atet)2, BG-(Imi)2, BG-(H3PO4)2 treated groups were calculated. All statistical analyses were completed with GraphPad Prism 6 (GraphPad Software). The difference between control and BG-(Tri)2, BG-(ATri)2, BG-(Atet)2, BG-(Imi)2, BG-(H3PO4)2 groups by a one-way ANOVA test (P<0.05). P<0.05 was considered as statistically significant.

HCT-116 cells [2] = test: Cancer cell morphology (inverted microscope); assay type: cell-based, human; conditions: for cancer cell morphology change: 48 hours, HCT-116; for microscopic evaluation of treated cancer cells (overall): HCT-116, versus control
From the text: Three samples were examined from each experiment.

[3] = Thermogravimetric analyses (TGA); assay type: physicochemical; conditions: 25° C. to 700° C., 10° C. min, nitrogen
Description: TGA were carried on Perkin-Elmer, simultaneous thermal analyzer (STA6000, PerkinElmer, Ohio, USA). TGA data of azole-BG samples were obtained at temperature in the range of 25° C. to 700° C. at the rate of 10° C. min under inert nitrogen flowing at a rate of 20 mL/min.

In the case of OC(CNc1ncn[nH]1)COCCCCOCC(O)CNc1ncn[nH]1 (stereo not drawn) [BG-(ATri)2], the “cancer cell viability (% of control)” value (HCT-116 cells [1]; 100 ug/mL) is reported as 28.12%, the “cancer cell viability (% of control)” value (HCT-116 cells [1]; 500 ug/mL) is reported as 25.62% and the “cancer cell viability (% of control)” value (HCT-116 cells [1]; 750 ug/mL) is reported as 24.68%. For the same compound, the “effect on cancer cells survivability (in words)” value (“effect … (in words)” below) (HCT-116 cells [1]) was “most profound effects on the cancer cells; also recorded: profound effects on cancer cells survivability”, the “attenuating cancer cells proliferation (in words)” value (HCT-116 cells [1]) was “highly effective in attenuating cancer cells proliferation” and the “dose dependence of effect on cancer cell survivability” value (“dose dependence of effect” for short) (HCT-116 cells [1]) was “dose dependent effects on cancer cell survivability”. The “cancer cell morphology change” value (HCT-116 cells [2]; 100 μg/mL) was “significant levels of nucleus condensation and nuclear augmentation”, the “cancer cell morphology change” value (HCT-116 cells [2]; 500 μg/mL) was “nuclear condensation and augmentation” and the “cancer cell morphology change” value (HCT-116 cells [2]; 750 μg/mL) was “Significant loss of cell population; also recorded: strong nuclear condensation and augmentation and showed the beginning of cell membrane disruption”. The “microscopic evaluation of treated cancer cells (overall)” value (“microscopic evaluation” below) (HCT-116 cells [2]) was “not only affected the cancer cell membrane, but also induced nuclear condensation, augmentation and disintegration”.

For OC(CNc1nnn[nH]1)COCCCCOCC(O)CNc1nnn[nH]1 (stereo not drawn) [BG-(Atet)2], the “cancer cell viability (% of control)” value (HCT-116 cells [1]; 100 ug/mL) was 25%, the “cancer cell viability (% of control)” value (HCT-116 cells [1]; 500 ug/mL) was 22.50% and the “cancer cell viability (% of control)” value (HCT-116 cells [1]; 750 ug/mL) was 18.75%. The “effect … (in words)” value (HCT-116 cells [1]) was “most profound effects on the cancer cells; also recorded: profound effects on cancer cells survivability”, the “attenuating cancer cells proliferation (in words)” value (HCT-116 cells [1]) was “highly effective in attenuating cancer cells proliferation” and the “dose dependence of effect” value (HCT-116 cells [1]) was “dose dependent effects on cancer cell survivability”. The “cancer cell morphology change” value (HCT-116 cells [2]; 100 μg/mL) was “strong nucleus condensation and nuclear augmentation”, the “cancer cell morphology change” value (HCT-116 cells [2]; 500 μg/mL) was “Further nucleus condensation and augmentation” and the “cancer cell morphology change” value (HCT-116 cells [2]; 500 μg/mL, listed as BG-(ATet)2) was “nuclear condensation and augmentation”. For the same compound, the “cancer cell morphology change” value (HCT-116 cells [2]; 750 μg/mL) was “significant loss of cell population”, the “cancer cell morphology change” value (HCT-116 cells [2]; 750 μg/mL, listed as BG-(ATet)2) was “strong nuclear condensation and augmentation and showed the beginning of cell membrane disruption” and the “microscopic evaluation” value (HCT-116 cells [2]) was “not only affected the cancer cell membrane, but also induced nuclear condensation, augmentation and disintegration”.

For O=P(O)(O)OCC(O)COCCCCOCC(O)COP(=O)(O)O (stereo not drawn) [BG-(H3PO4)2], the “cancer cell viability (% of control)” value (HCT-116 cells [1]; 100 ug/mL) was 85.31%, the “cancer cell viability (% of control)” value (HCT-116 cells [1]; 500 ug/mL) was 55.93% and the “cancer cell viability (% of control)” value (HCT-116 cells [1]; 750 ug/mL) was 53.12%. The “effect … (in words)” value (HCT-116 cells [1]) was “profound effects on cancer cells survivability”, the “dose dependence of effect” value (HCT-116 cells [1]) was “dose dependent effects on cancer cell survivability” and the “cancer cell morphology change” value (HCT-116 cells [2]; 100 μg/mL) was “disintegrations of cancer cells”. For the same compound, the “cancer cell morphology change” value (HCT-116 cells [2]; 500 μg/mL) was “strong nuclear condensation and augmentation”, the “cancer cell morphology change” value (HCT-116 cells [2]; 500 μg/mL, listed as BG-(H3PO4)) was “nuclear condensation and augmentation” and the “cancer cell morphology change” value (HCT-116 cells [2]; 750 μg/mL) was “strong nuclear condensation and augmentation”. The “cancer cell morphology change” value (HCT-116 cells [2]; 750 μg/mL, listed as BG-(H3PO4)) was “strong nuclear condensation and augmentation and showed the beginning of cell membrane disruption”, the “microscopic evaluation” value (HCT-116 cells [2]) was “not only affected the cancer cell membrane, but also induced nuclear condensation, augmentation and disintegration” and the “temperature of weight loss / degradation by TGA” value [3] was “Above 200 °C”.

In the case of OC(COCCCCOCC(O)Cn1ccnc1)Cn1ccnc1 (stereo not drawn) [BG-(Imi)2], the “cancer cell viability (% of control)” value (HCT-116 cells [1]; 100 ug/mL) is reported as 25%, the “cancer cell viability (% of control)” value (HCT-116 cells [1]; 500 ug/mL) is reported as 21.87% and the “cancer cell viability (% of control)” value (HCT-116 cells [1]; 750 ug/mL) is reported as 18.75%. For the same compound, the “effect … (in words)” value (HCT-116 cells [1]) was “most profound effects on the cancer cells; also recorded: profound effects on cancer cells survivability”, the “attenuating cancer cells proliferation (in words)” value (HCT-116 cells [1]) was “highly effective in attenuating cancer cells proliferation” and the “dose dependence of effect” value (HCT-116 cells [1]) was “dose dependent effects on cancer cell survivability”. For the same compound, the “cancer cell morphology change” value (HCT-116 cells [2]; 100 μg/mL) was “strong nucleus condensation and nuclear augmentation”, the “cancer cell morphology change” value (HCT-116 cells [2]; 500 μg/mL) was “further nucleus condensation and augmentation; also recorded: nuclear condensation and augmentation” and the “cancer cell morphology change” value (HCT-116 cells [2]; 750 μg/mL) was “significant loss of cell population; also recorded: strong nuclear condensation and augmentation and showed the beginning of cell membrane disruption”. The “microscopic evaluation” value (HCT-116 cells [2]) was “not only affected the cancer cell membrane, but also induced nuclear condensation, augmentation and disintegration”.

In the case of OC(COCCCCOCC(O)Cn1cncn1)Cn1cncn1 (stereo not drawn) [BG-(Tri)2], the “cancer cell viability (% of control)” value (HCT-116 cells [1]; 100 ug/mL) is reported as 75%, the “cancer cell viability (% of control)” value (HCT-116 cells [1]; 500 ug/mL) is reported as 26.86% and the “cancer cell viability (% of control)” value (HCT-116 cells [1]; 750 ug/mL) is reported as 21.87%. The “effect … (in words)” value (HCT-116 cells [1]) was “most profound effects on the cancer cells; also recorded: profound effects on cancer cells survivability”, the “attenuating cancer cells proliferation (in words)” value (HCT-116 cells [1]) was “highly effective in attenuating cancer cells proliferation” and the “dose dependence of effect” value (HCT-116 cells [1]) was “dose dependent effects on cancer cell survivability”. For the same compound, the “cancer cell morphology change” value (HCT-116 cells [2]; 100 μg/mL) was “moderate levels of nucleus condensation and nuclear augmentation”, the “cancer cell morphology change” value (HCT-116 cells [2]; 500 μg/mL) was “Strong nuclear condensation and augmentation and the beginning of cell membrane disruption” and the “cancer cell morphology change” value (HCT-116 cells [2]; 750 μg/mL) was “significant loss of cell population; also recorded: nuclear condensation and augmentation”. The “microscopic evaluation” value (HCT-116 cells [2]) was “not only affected the cancer cell membrane, but also induced nuclear condensation, augmentation and disintegration”.
